Source: ChEMBL document CHEMBL1140374, “2-n-Butyl-9-methyl-8-[1,2,3]triazol-2-yl-9H-purin-6-ylamine and analogues as A2A adenosine receptor antagonists. Design, synthesis, and pharmacological characterization” (J Med Chem, 2005)

How the values were obtained:
[1] = target: Vesicular acetylcholine transporter (Homo sapiens, UniProt Q16572); assay: (§1) Percent inhibition against Acetylcholine transporter at 1 uM
Adenosine receptor A1 = target: T1, Adenosine receptor A1 (Homo sapiens, UniProt P30542); assay: biochemical
T1 sequence (P30542 whole entry): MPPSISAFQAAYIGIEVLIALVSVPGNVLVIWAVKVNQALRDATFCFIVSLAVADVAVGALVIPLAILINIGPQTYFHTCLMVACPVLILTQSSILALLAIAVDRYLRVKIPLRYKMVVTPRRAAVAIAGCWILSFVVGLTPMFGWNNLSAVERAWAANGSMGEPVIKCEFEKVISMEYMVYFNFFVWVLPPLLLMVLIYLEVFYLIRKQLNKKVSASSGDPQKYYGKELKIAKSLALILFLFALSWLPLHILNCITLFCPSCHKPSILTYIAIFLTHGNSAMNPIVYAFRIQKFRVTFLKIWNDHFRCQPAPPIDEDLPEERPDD

[2] = target: GABA-A receptor; anion channel; assay: (§2) Percent inhibition against GABAA receptor alpha at a compound concentration of 1 uM; type: protein-complex assay, Homo sapiens
[3] = target: T2, GABA-A receptor; anion channel (Homo sapiens) (UniProt P14867+P47870+P18507+P28472+P48169+Q99928+Q9UN88+P34903+O00591+O14764+Q8N1C3+P18505+P78334+P47869+P31644+Q16445); assay: Percent inhibition against central Benzodiazepine receptor at 1 uM; type: protein-complex assay
Homo sapiens [4] = organism: Homo sapiens; assay: Percent inhibition against P2X Purinergic receptor at 1 uM; type: tissue-based
[5] = target: Muscarinic acetylcholine receptor M3 (Homo sapiens) (UniProt P20309); assay: Percent inhibition against Muscarinic acetylcholine receptor M3 at 1 uM
[6] = target: Muscarinic acetylcholine receptor M4 (Homo sapiens) (UniProt P08173); assay: Percent inhibition against Muscarinic acetylcholine receptor M4 at 1 uM
[7] = target: Muscarinic acetylcholine receptor M5 (Homo sapiens) (UniProt P08912); assay: Percent inhibition against Muscarinic acetylcholine receptor M5 at 1 uM
[8] = target: Sodium-dependent noradrenaline transporter (Homo sapiens) (UniProt P23975); assay: Percent inhibition against Norepinephrine transporter at 1 uM nonselective
[9] = target: 5-hydroxytryptamine receptor 4 (Homo sapiens) (UniProt Q13639); assay: Percent inhibition against 5-hydroxytryptamine 4 receptor at 1 uM
[10] = target: 5-hydroxytryptamine receptor 6 (Homo sapiens) (UniProt P50406); assay: Percent inhibition against 5-hydroxytryptamine 6 receptor at 1 uM
[11] = target: 5-hydroxytryptamine receptor 1A (Homo sapiens) (UniProt P08908); assay: Percent inhibition against 5-hydroxytryptamine 1A receptor at 1 uM
[12] = target: 5-hydroxytryptamine receptor 2A (Homo sapiens) (UniProt P28223); assay: Percent inhibition against 5-hydroxytryptamine 2A receptor at 1 uM
[13] = target: 5-hydroxytryptamine receptor 2C (Homo sapiens) (UniProt P28335); assay: Percent inhibition against 5-hydroxytryptamine 2C receptor at 1 uM
Adenosine receptor A3 = Adenosine receptor A3 (Homo sapiens, UniProt P0DMS8); assay: Binding affinity towards human Adenosine A3 receptor expressed in HEK293 cells using 0.1 nM [3H]AB-MECA; type: cell-based
[14] = target: T3, Glutamate [NMDA] receptor (Homo sapiens) (UniProt Q05586+Q12879+Q13224+O15399+O60391+Q14957+Q8TCU5); assay: Percent inhibition against PCP receptor at 1 uM; type: protein-complex assay
[15] = target: Glutamate receptor ionotropic AMPA (Homo sapiens) (UniProt P48058+P42263+P42262+P42261); assay: (§3) Percent inhibition against AMPA receptor at 1 uM; type: protein-complex assay
[16] = target: T3, Glutamate [NMDA] receptor (Homo sapiens); assay: Percent inhibition against NMDA receptor at a compound concentration of 1 uM; type: protein-complex assay
Homo sapiens [17] = organism: Homo sapiens; assay: (§4) Percent inhibition against P2Y Purinoceptor at 1 uM
[18] = target: GABA-B receptor (Homo sapiens) (UniProt Q9UBS5+O75899); assay: Percent inhibition against GABA-B receptor at 1 uM; type: protein-complex assay
[19] = target: D(3) dopamine receptor (Homo sapiens) (UniProt P35462); assay: Percent inhibition against Dopamine receptor D3 at 1 uM
[20] = target: D(1B) dopamine receptor (Homo sapiens) (UniProt P21918); assay: Percent inhibition against Dopamine receptor D5 at 1 uM
[21] = target: T2, GABA-A receptor; anion channel (Homo sapiens); assay: as §2; type: protein-complex assay
[22] = target: Vesicular acetylcholine transporter (Homo sapiens) (UniProt Q16572); assay: as §1
Adenosine receptor A2b = target: T4, Adenosine receptor A2b (Homo sapiens, UniProt P29275); assay: Binding affinity towards human Adenosine A2b receptor expressed in HEK293 cells using 5 nM [3H]DPCPX; type: cell-based
T4 sequence (P29275 whole entry): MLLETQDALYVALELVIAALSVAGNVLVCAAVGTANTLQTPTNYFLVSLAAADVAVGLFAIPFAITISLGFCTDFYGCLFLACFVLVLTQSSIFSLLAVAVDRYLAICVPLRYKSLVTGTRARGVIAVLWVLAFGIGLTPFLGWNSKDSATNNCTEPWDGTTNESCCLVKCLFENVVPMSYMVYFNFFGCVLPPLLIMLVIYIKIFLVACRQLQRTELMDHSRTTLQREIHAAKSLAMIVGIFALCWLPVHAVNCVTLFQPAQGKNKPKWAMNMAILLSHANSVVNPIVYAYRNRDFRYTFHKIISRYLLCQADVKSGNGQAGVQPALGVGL

[23] = target: Beta-2 adrenergic receptor (Homo sapiens) (UniProt P07550); assay: Percent inhibition against Beta-2 adrenergic receptor at 1 uM
[24] = target: Equilibrative nucleoside transporter 1 (Homo sapiens) (UniProt Q99808); assay: Percent inhibition against ADO transporter at 1 uM nonselective
[25] = target: Sodium-dependent dopamine transporter (Homo sapiens) (UniProt Q01959); conditions: 1 uM
[26] = target: Muscarinic acetylcholine receptor M1 (Homo sapiens) (UniProt P11229); conditions: at 1 µM
[27] = target: Muscarinic acetylcholine receptor M2 (Homo sapiens) (UniProt P08172); conditions: 1 uM
[28] = target: Opioid receptors; mu/kappa/delta (Homo sapiens) (UniProt P41145+P41143+P35372); conditions: at 1 µM
[29] = target: Serotonin 3 (5-HT3) receptor (Homo sapiens) (UniProt P46098+A5X5Y0+O95264+Q70Z44+Q8WXA8); conditions: 1 uM
[30] = target: 5-hydroxytryptamine receptor 5A (Homo sapiens) (UniProt P47898); conditions: 1 uM
[31] = target: Sodium-dependent serotonin transporter (Homo sapiens) (UniProt P31645); conditions: 1 uM
[32] = target: D(1A) dopamine receptor (Homo sapiens) (UniProt P21728); conditions: 1 uM
[33] = target: D(2) dopamine receptor (Homo sapiens) (UniProt P14416); conditions: 1 uM
[34] = target: D(4) dopamine receptor (Homo sapiens) (UniProt P21917); conditions: 1 uM
[35] = target: Beta-1 adrenergic receptor (Homo sapiens) (UniProt P08588); conditions: 1 uM
[36] = target: Adrenergic receptor alpha-1 (Homo sapiens) (UniProt P35348+P25100+P35368); conditions: 1 uM
Adenosine receptor A2a = Adenosine receptor A2a (Homo sapiens, UniProt P29274); assay: biochemical
[37] = as §4; set-up: species or system Homo sapiens
[38] = target: Glutamate receptor ionotropic AMPA (Homo sapiens, UniProt P42261+P42262+P42263+P48058); assay: as §3; type: protein-complex assay

Sequence of Adenosine receptor A2a (P29274 whole entry): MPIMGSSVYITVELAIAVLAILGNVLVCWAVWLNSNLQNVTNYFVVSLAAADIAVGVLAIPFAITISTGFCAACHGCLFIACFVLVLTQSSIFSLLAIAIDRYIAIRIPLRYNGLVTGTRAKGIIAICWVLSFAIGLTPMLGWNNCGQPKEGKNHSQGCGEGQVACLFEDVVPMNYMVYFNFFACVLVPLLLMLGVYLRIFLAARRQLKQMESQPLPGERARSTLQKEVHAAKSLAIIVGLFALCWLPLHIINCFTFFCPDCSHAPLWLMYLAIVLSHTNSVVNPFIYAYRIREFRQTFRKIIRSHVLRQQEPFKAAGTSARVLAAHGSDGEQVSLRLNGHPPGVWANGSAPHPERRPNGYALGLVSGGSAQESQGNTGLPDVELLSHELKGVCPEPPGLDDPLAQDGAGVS
Sequence of D(1B) dopamine receptor (Homo sapiens) (P21918 whole entry): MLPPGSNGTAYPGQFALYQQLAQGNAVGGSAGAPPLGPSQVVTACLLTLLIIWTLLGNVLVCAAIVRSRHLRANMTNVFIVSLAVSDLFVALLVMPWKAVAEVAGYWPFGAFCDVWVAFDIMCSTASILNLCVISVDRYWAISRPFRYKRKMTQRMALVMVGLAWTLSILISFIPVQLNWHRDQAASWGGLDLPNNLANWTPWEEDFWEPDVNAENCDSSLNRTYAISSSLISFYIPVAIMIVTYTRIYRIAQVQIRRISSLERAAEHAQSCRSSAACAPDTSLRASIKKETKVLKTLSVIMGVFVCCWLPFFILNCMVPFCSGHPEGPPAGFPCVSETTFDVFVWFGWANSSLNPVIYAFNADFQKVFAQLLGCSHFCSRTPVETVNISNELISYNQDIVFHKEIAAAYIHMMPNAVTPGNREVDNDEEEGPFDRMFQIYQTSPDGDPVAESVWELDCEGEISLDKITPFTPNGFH
Sequence of D(4) dopamine receptor (Homo sapiens) (P21917 whole entry): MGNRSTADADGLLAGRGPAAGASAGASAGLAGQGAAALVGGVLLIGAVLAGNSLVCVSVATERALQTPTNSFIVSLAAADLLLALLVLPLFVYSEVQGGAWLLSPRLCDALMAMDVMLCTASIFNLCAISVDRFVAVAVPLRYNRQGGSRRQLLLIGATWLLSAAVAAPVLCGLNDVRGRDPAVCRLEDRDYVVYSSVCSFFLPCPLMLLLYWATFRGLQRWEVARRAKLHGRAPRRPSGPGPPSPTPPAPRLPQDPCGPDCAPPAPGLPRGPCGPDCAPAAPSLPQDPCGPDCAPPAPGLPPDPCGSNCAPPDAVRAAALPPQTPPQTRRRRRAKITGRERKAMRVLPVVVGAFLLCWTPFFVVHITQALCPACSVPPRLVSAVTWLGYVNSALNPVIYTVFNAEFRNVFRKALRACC
Sequence of Beta-1 adrenergic receptor (Homo sapiens) (P08588 whole entry, looked up): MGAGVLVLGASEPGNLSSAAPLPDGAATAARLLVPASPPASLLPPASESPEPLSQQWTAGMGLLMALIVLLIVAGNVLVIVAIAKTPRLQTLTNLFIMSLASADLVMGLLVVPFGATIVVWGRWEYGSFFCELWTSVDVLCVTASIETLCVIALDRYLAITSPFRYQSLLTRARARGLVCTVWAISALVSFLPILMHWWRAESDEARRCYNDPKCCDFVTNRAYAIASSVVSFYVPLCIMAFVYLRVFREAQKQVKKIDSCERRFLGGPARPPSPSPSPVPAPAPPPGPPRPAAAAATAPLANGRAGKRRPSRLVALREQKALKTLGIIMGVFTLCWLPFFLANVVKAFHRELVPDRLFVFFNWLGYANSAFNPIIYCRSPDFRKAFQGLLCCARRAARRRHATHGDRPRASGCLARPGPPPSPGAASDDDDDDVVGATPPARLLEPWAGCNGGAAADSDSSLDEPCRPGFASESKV
Sequence of Sodium-dependent dopamine transporter (Homo sapiens) (Q01959 whole entry): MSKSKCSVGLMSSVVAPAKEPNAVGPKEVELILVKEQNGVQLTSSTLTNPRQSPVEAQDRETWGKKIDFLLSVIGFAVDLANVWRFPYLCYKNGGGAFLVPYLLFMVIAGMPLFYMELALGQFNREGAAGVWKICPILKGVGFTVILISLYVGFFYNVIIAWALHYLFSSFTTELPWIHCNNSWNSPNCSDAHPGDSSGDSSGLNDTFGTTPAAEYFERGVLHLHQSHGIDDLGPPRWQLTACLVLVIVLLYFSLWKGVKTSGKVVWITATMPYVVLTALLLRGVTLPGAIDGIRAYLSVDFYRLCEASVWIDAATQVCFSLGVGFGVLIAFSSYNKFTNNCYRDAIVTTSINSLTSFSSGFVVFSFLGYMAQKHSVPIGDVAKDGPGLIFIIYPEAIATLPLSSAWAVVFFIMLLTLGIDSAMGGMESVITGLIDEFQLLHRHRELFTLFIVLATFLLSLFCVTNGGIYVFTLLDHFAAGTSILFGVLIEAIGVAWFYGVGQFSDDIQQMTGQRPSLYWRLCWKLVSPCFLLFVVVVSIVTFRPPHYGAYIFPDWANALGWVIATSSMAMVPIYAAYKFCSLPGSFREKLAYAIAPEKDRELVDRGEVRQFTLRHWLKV
Sequence of D(1A) dopamine receptor (Homo sapiens) (P21728 whole entry): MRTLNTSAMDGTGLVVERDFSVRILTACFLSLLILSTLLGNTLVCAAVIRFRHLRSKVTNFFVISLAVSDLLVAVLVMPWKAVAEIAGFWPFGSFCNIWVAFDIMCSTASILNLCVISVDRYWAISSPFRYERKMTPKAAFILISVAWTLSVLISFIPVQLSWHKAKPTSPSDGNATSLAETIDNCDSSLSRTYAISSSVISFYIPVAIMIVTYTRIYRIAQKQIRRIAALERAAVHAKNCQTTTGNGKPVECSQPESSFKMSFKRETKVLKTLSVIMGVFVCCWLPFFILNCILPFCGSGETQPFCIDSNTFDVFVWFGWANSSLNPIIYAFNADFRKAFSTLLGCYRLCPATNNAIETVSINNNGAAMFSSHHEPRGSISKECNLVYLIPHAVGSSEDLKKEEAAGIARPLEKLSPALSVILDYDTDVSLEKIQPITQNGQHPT
Sequence of Muscarinic acetylcholine receptor M2 (Homo sapiens) (P08172 whole entry): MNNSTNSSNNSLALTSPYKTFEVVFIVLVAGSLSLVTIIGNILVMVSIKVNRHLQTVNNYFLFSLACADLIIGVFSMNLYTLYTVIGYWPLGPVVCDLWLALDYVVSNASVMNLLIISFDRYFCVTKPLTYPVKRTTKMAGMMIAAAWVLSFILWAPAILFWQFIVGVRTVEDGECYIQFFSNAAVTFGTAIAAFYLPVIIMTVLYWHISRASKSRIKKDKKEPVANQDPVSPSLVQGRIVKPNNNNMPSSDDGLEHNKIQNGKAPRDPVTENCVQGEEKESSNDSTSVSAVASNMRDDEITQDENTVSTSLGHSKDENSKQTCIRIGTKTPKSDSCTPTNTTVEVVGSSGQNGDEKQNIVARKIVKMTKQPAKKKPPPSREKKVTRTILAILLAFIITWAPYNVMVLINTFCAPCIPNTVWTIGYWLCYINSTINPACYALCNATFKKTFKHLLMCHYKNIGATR
Sequence of Adenosine receptor A3 (P0DMS8 whole entry): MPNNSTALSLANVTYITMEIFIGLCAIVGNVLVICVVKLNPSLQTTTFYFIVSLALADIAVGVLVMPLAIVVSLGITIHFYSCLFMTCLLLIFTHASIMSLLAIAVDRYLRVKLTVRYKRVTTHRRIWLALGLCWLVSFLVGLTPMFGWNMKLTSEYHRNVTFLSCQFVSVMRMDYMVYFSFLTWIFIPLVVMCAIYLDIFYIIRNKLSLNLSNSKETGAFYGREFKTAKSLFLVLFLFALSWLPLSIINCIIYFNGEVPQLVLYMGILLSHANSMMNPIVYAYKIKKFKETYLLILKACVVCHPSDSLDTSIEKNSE
Sequence of D(2) dopamine receptor (Homo sapiens) (P14416 whole entry): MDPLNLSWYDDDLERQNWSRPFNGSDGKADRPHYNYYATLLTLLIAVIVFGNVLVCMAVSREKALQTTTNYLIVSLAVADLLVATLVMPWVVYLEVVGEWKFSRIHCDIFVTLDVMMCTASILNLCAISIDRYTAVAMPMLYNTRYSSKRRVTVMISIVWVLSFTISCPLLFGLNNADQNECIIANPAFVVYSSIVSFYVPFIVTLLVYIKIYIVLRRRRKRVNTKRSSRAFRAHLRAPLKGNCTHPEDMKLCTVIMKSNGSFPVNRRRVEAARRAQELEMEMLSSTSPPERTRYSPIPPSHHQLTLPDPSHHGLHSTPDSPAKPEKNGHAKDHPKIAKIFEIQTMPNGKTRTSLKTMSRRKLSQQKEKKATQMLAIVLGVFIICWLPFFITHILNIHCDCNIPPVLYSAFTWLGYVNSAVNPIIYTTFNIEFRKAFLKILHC
Sequence of Muscarinic acetylcholine receptor M4 (Homo sapiens) (P08173 whole entry): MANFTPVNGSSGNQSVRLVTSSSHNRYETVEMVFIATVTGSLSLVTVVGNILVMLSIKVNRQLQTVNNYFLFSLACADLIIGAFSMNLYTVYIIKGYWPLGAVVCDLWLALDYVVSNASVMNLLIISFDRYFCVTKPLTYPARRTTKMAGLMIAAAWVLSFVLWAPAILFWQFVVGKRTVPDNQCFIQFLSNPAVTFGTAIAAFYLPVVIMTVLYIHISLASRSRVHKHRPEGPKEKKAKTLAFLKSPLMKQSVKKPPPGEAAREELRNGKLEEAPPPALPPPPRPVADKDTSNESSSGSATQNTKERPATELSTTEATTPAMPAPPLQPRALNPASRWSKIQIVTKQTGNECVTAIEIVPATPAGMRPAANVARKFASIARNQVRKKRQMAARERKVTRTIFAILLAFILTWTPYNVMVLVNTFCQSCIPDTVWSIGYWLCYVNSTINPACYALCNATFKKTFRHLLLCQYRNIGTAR
Sequence of 5-hydroxytryptamine receptor 4 (Homo sapiens) (Q13639 whole entry): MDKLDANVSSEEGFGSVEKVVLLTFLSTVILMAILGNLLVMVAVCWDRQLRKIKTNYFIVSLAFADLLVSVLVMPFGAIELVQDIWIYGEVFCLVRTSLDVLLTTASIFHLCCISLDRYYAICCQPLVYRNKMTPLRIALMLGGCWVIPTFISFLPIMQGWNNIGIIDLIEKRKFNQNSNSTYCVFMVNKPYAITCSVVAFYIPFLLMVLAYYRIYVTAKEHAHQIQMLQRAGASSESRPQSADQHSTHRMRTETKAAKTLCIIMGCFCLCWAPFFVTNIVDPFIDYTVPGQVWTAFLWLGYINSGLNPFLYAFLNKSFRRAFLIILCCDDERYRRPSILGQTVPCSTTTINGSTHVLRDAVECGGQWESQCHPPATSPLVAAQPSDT

SMILES: C[N+]1(C)CCOC(O)(c2ccc(-c3ccc(C4(O)C[N+](C)(C)CCO4)cc3)cc2)C1 (centres undefined)
- IC50 [1]: 12 nM

SMILES: Cc1nc(N)c2nc(-n3nccn3)n(C)c2n1
- Ki (Adenosine receptor A1): 10.4 nM

SMILES: NCc1cc(=O)[nH]o1 [MUSCIMOL]
- IC50 [2]: 16 nM

SMILES: CCCCc1nc(N)c2nc(-n3nccn3)n(C)c2n1 [ST1535]
- inhibition [3]: < 10%
- inhibition (Homo sapiens [4]): < 10%
- inhibition [5]: < 10%
- inhibition [6]: < 10%
- inhibition [7]: < 10%
- inhibition [8]: < 10%
- inhibition [9]: < 10%
- inhibition [10]: < 10%
- inhibition [11]: < 10%
- inhibition [12]: < 10%
- inhibition [13]: < 10%
- Ki (Adenosine receptor A3): > 1000 nM
- inhibition [14]: < 10%
- inhibition [15]: < 10%
- inhibition [16]: < 10%
- inhibition (Homo sapiens [17]): < 10%
- inhibition [18]: < 10%
- inhibition [19]: < 10%
- inhibition [20]: < 10%
- inhibition [21]: < 10%
- inhibition [22]: < 10%
- Ki (Adenosine receptor A2b): 352 nM
- inhibition [23]: < 10%
- inhibition [24]: 24%
- inhibition [25]: < 10%
- inhibition [26]: < 10%
- inhibition [27]: < 10%
- inhibition [28]: < 10%
- inhibition [29]: < 10%
- inhibition [30]: < 10%
- inhibition [31]: < 10%
- inhibition [32]: < 10%
- inhibition [33]: < 10%
- inhibition [34]: < 10%
- inhibition [35]: < 10%
- inhibition [36]: < 10%
- Ki (Adenosine receptor A1): 71.8 nM
- Ki (Adenosine receptor A2a): 6.6 nM

SMILES: CCn1c(=O)c2c(nc(/C=C/c3ccc(OC)c(OC)c3)n2C)n(CC)c1=O [ISTRADEFYLLINE]
- Ki (Adenosine receptor A1): > 1000 nM

SMILES: CCCCCc1nc(N)c2nc(-n3nccn3)n(C)c2n1
- inhibition [3]: < 10%
- inhibition (Homo sapiens [4]): < 10%
- inhibition [5]: < 10%
- inhibition [6]: < 10%
- inhibition [7]: < 10%
- inhibition [8]: < 10%
- inhibition [9]: < 10%
- inhibition [10]: < 10%
- inhibition [11]: < 10%
- inhibition [12]: < 10%
- inhibition [13]: < 10%
- Ki (Adenosine receptor A3): 760 nM
- inhibition [14]: < 10%
- inhibition [15]: < 10%
- inhibition [16]: < 10%
- inhibition (Homo sapiens [17]): < 10%
- inhibition [18]: < 10%
- inhibition [19]: < 10%
- inhibition [20]: < 10%
- inhibition [21]: < 10%
- inhibition [22]: < 10%
- inhibition [23]: < 10%
- inhibition [24]: 34%
- inhibition [25]: < 10%
- inhibition [26]: < 10%
- inhibition [27]: < 10%
- inhibition [28]: < 10%
- inhibition [29]: < 10%
- inhibition [30]: < 10%
- inhibition [31]: < 10%
- inhibition [32]: < 10%
- inhibition [33]: < 10%
- inhibition [34]: < 10%
- inhibition [35]: < 10%
- inhibition [36]: < 10%

SMILES: Cn1c(-n2nccn2)nc2c(N)nccc21
- Ki (Adenosine receptor A2b): 518 nM
- Ki (Adenosine receptor A1): 1060 nM
- Ki (Adenosine receptor A2a): 51.6 nM

SMILES: CCCc1nc(N)c2nc(-n3nccn3)n(C)c2n1
- Ki (Adenosine receptor A2b): 18 nM
- Ki (Adenosine receptor A1): 266 nM
- Ki (Adenosine receptor A2a): 83.7 nM

SMILES: Nc1ncnc2c1ncn2[C@H]1C[C@H](O)[C@@H](COP(O)(=S)OP(=O)(O)OP(=O)(O)O)O1 (some centres undefined)
- inhibition [37]: 22%

SMILES: Cn1c(-n2nccn2)nc2c(N)ncnc21
- Ki (Adenosine receptor A1): 0.4 nM

SMILES: CC(C)c1nc(N)c2nc(-n3nccn3)n(C)c2n1
- Ki (Adenosine receptor A1): 2270 nM
- Ki (Adenosine receptor A2a): 481 nM

SMILES: O=C(O)[C@@H]1C[C@H](CP(=O)(O)O)CCN1 [SELFOTEL]
- IC50 [38]: 967 nM

SMILES: Nc1ncnc2c1ncn2[C@@H]1O[C@H](COP(=O)(O)CP(=O)(O)OP(=O)(O)O)[C@@H](O)[C@H]1O [DIPHOSPHOMETHYLPHOSPHONIC ACID ADENOSYL ESTER]
- inhibition [37]: 14%

SMILES: Cc1cc2c(nc(-n3nccn3)n2C)c(N)n1
- Ki (Adenosine receptor A2b): 140 nM
- Ki (Adenosine receptor A1): 340 nM
- Ki (Adenosine receptor A2a): 120 nM

SMILES: O=c1nc2[nH]c3ccccc3nc-2c(=O)[nH]1 [ALLOXAZINE]
- Ki (Adenosine receptor A1): > 100000 nM
- Ki (Adenosine receptor A2a): 935 nM
